{"source": "paper PMC12261321", "about": "“Inhibitors of the Bacterioferritin Ferredoxin Complex Dysregulate Iron Homeostasis and Kill and Biofilm-Embedded Cells” (ACS Infectious Diseases, 2025)"}
{"system": "A. baumannii 5075", "assay": "Siderophores secreted by A. baumannii (CAS assay)", "format": "cell-based", "conditions": "5075, 20 h, M63 without citrate; compounds 40 μM, SB-17–140 80 μM", "experimental": "Unlike pyoverdine, the siderophores secreted by are not fluorescent. Consequently, to measure siderophore secretion from planktonic cultures of , we decided to utilize the Chrome azurol S (CAS) assay, a well-known universal colorimetric method used to detect siderophores. , To this end, planktonic cells of 5075 were cultured for 20 h in the presence of sub-MICs of a representative number of inhibitors in M63 media not containing citrate, followed by analysis of the cell-free spent media by the CAS assay. […] These observations support the hypothesis that active compounds engage their target (Ab Bfr) and block the Ab Bfr–Bfd complex in , trapping iron in Ab Bfr and causing intracellular iron limitation, which in turn elicits a siderophore overproduction phenotype. […]\nreported13 with some modifications. Cells were cultured in modified M63 media (2 g / L ( N H 4)2SO4, 13.6 g/L KH2PO4 (Sigma Aldrich), 2 g/L glucose, 4 g/L cit ric acid, 5 g/ L technical grade casamino acids (B D scientific), 0.24 g/L MgSO4 (Alfa A esar), and 0.025% (w/v) HPMC, pH 7.0 adjusted with KOH) . […]\nDetermination of Siderophores Secreted by A. baumannii . The chromo azurol S (CAS) solution was prepared as previously reported18 with some modifications. The blue dye solution (0.6 g/L CAS ( ACROS Organics), 100 μM FeCl3·6H2O, and 0.73 g/L hexadecyltrimethylammonium bromide (HDTMA, ACROS Organics) was autoclaved and stored in the dark. The MM9-PIPES buffer solution (3 g/L KH2PO4, 5 g/L NaCl, 10 g/L NH4C l, 32.24 g/L piperazine -1,4-bis-2- ethanesulfonic acid (PIPES , Sigma Aldrich), pH 6.75) was sterilized using a 0.22 µm syringe filter (VWR). Prior to every experimen t, blue dye solution (0.5 mL) was mixed with 4.5 mL of MM9-PIPES solution. An overnight culture of A. baumannii 5075 was diluted to OD600 = 0.0001 with modified M63 media (no citric acid) supplemented with 4 μ M Fe and transferred to a 96-well plate, wh ere it was cul tured for 20 […]\nh at 35 °C and 205 cpm i n a plate reader (Synergy H1, BioTek). The treated cell cultures contained compound at the concentrations indicat ed in the caption of Figure 8B and […], whereas the untreated control contained 0.1% DMSO. 700 μ L was centrifuged at 16,200 x g for 10 min. 200 μ L of the clarified supern atant was mixed with the 200 μL of CAS solution and allowed to incubate at room temperatu re in the dark for 2 h prior to recording a UV-Vis spectrum (200 nm to 800 nm) in a 1.0 cm quartz cuvette with the aid of a Cary 60 UV-Vi s spectrophotometer (Agilent Technologies). The fold- change in siderophore secreted by the treated vs. untreated cells was calculated using equation S3, where Tr indicates treated cells, Un indicates DMSO control cells, […]\nsolution of fresh modified M63 media. The experiment was carried out in at least five biological replicates for […]\nFFggFFFF cch aammggaa =(ΔΔAA 630 )UUii (S3)\nMeasurement of Dissociation Constant (Kd) R ecombinant Pa BfrB was expressed in E. coli and purified as previously reported.19 Apo-BfrB (devoid of heme) was utilized for the measurements to prevent heme-driven fluorescence quenching. A 0.5 mL solution contai ning 0.01 µM apo Pa-BfrB in PBS (pH = 7.4) containing0.5% DMSO was plac ed into a 1 cm quartz cuvette wh ere it was titrated with aliq uots of compound dissolved in a 50% (v/v) PBS/DMSO solution. The fluorescence quenching brought by the addition of each aliquot was monitored with the aid of an Agilent Cary Fluorometer , with excitation at 280 nm, emission at 320- 470 nm, 10 x10 nm slit width, and an average of 5 scans per spectrum. Th e binding assay included at least 8 aliquots spanning from ~ 0.1 […]\nA control titration was carried out by titrati ng compound into PBS buffer. The Kd was cal culated by fitting the data to equation S4, w here Fb is the fraction bound and Fmax is the fraction bound at saturating compound concentration.\nFFbb = FFmmmmmm ? [ccccmmccccccmmcc ]? (S4) […]"}
{"molecule": "O=C1NC(=O)c2c(NCc3ccc(Br)cc3O)cccc21", "note": "[EB-5-61]", "siderophore secretion, ΔA 630 nm normalized to OD600": "secrete significantly higher levels of siderophore"}
{"molecule": "O=C1NC(=O)c2c(NCc3cccc(Br)c3O)cccc21", "note": "[EB-5-73]", "siderophore secretion, ΔA 630 nm normalized to OD600": "do not elicit a siderophore overproduction phenotype"}
{"molecule": "O=C1NC(=O)c2c(NCc3cccc4c3CCN4)cccc21", "note": "[SB-17-140]", "siderophore secretion, ΔA 630 nm normalized to OD600": "do not elicit a siderophore overproduction phenotype"}
{"molecule": "O=C1NC(=O)c2c(NCc3c(O)cccc3Cl)cccc21", "note": "[KM-5-29]", "siderophore secretion, ΔA 630 nm normalized to OD600": "secrete significantly higher levels of siderophore"}
{"molecule": "O=C1NC(=O)c2c(NCc3cc(Cl)ccc3O)cccc21", "note": "[KM-5-25, 4-((5-Chloro-2-hydroxybenzyl)amino)isoindoline-1,3-dione]", "siderophore secretion, ΔA 630 nm normalized to OD600": "secrete significantly higher levels of siderophore"}
{"molecule": "O=C1NC(=O)c2c(NCc3cc(Br)ccc3O)cccc21", "note": "[KM-5-35, 4-((5-Bromo-2-hydroxybenzyl)amino)isoindoline-1,3-dione]", "siderophore secretion, ΔA 630 nm normalized to OD600": "secrete significantly higher levels of siderophore"}
